Measurements published in publication PMC4687525, “Drosophila Avoids Parasitoids by Sensing Their Semiochemicals via a Dedicated Olfactory Circuit” (PLoS Biology, 2015).

Target: T1, Or85f (Drosophila melanogaster, UniProt Q9VHE6)
T1 construct: full-length receptor, UAS-Or85f transgene expressed in mutant ab3A neuron lacking Or22a (delta-halo empty neuron); endogenous Orco; with Odorant receptor coreceptor
T1 sequence (Q9VHE6 1-392): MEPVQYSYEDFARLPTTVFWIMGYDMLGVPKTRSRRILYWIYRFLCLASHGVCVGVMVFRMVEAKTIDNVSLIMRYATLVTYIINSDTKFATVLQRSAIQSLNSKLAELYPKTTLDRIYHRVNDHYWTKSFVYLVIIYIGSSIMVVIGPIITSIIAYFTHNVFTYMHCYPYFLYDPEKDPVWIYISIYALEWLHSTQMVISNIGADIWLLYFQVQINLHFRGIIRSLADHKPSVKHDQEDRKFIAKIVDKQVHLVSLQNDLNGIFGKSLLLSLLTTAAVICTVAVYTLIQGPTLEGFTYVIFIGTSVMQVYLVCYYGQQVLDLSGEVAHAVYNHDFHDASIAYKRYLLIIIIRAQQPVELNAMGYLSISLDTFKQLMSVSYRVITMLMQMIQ
T1 sequence (Q9VNB5 1-486 partner): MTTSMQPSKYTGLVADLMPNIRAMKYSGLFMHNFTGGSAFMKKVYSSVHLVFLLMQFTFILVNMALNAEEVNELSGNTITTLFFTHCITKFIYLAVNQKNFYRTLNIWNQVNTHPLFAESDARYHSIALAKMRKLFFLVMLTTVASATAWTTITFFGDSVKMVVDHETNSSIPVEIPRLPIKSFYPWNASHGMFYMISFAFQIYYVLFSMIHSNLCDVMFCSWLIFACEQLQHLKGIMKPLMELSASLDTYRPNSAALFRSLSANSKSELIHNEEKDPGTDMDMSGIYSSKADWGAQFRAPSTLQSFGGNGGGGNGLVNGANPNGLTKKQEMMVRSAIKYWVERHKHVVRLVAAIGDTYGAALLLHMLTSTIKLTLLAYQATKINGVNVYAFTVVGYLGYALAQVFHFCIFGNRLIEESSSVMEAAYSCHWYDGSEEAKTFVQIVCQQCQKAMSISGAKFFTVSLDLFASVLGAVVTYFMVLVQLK
Experiment: GC-coupled single sensillum recording, empty neuron (ab3A)
Assay type: cell-based
Conditions: agonist

[1] = reference sample described as racemic

| SMILES | GC-coupled single sensillum recording, empty neuron (ab3A) [1] | GC-coupled single sensillum recording, empty neuron (ab3A) |
| --- | --- | --- |
| CC1=CO[C@H](O)[C@H]2[C@H](C)CC[C@@H]12 (racemic) [1S4aR7R7aS-nepetalactol] | 1S4aR7R7aS, 1R4aS7S7aS-nepetalactol and their enantiomers) activated OSNs expressing Or85f | – |
| CC1=CO[C@@H](O)[C@@H]2[C@@H]1CC[C@@H]2C (racemic) [1R4aS7S7aS-nepetalactol] | 1S4aR7R7aS, 1R4aS7S7aS-nepetalactol and their enantiomers) activated OSNs expressing Or85f | – |
| Cc1cncc2c1CC[C@H]2C [(R)-actinidine] | – | When we tested OSNs misexpressing Or85f, they became activated by (R)-actinidine and nepetalactol |
